Test results from patent publication US20240425464A1, “Substituted Monohydrazides as Potent Antifungal Agents” (University of Kentucky Research Foundation, priority 2023, published 2024).
Values after ≈ are worked out from the molar mass of the structure shown. Like-named read-outs stand apart in the source and are kept apart here.

Test system: C. albicans ATCC 10231 (strain A)
Assay: MIC determination by in vitro antifungal assay (CLSI broth dilution)
Type: cell-based, Candida albicans
Settings: strain A = C. albicans ATCC 10231, no visible growth, 48 h at 35° C.
Method: 10 mg/mL stock solutions of compounds 1a-9j were prepared in dimethyl sulfoxide (DMSO) and were stored at −20° C. in the dark. The antifungal agent amphotericin B (AmB) was purchased from VWR (Radnor PA, USA). AmB was dissolved in DMSO at a final concentration of 5 mg/mL and was stored at −20° C., protected from light. Candida albicans American Type Culture Collection (ATCC) 10231 (strain A), C. albicans ATCC 64124 (B), and C. albicans ATCC MYA-2876 (C) were obtained from Utah State University. C. albicans ATCC 90819 (D), C. albicans ATCC MYA-2310 (E), C. albicans ATCC MYA-1237 (F), C. albicans ATCC MYA-1003 (G), Candida glabrata ATCC 2001 (H), Candida krusei ATCC 6258 (I), Candida parapsilosis ATCC 22019 (J), Cryptococcus neoformans ATCC MYA-895 (M), Aspergillus terreus ATCC MYA-3633 (N), and Aspergillus flavus ATCC MYA-3631 (0) were obtained from the American Type Culture Collection (ATCC; Manassas, VA, USA). Aspergillus nidulans ATCC 38163 (P) was obtained from University of Kentucky. Clinically derived Aspergillus fumigatus NRRL 163 (Q), A. fumigatus NRRL 5109 (R), and A. fumigatus NRRL 6113 (S) were obtained from Northern Regional Research Laboratory (NRRL). Candida auris 384 (K), C. auris 390 (L), and fungal strains 381-400 (including 10 C. auris (AR Bank #381-390), 3 Candida duobushaemulonii (AR Bank #391, AR Bank #392, and AR Bank #394), 2 Candida haemulonii (AR Bank #393 and AR Bank #395), 1 Kodameae ohmeri (AR Bank #396), 1 C. krusei (AR Bank #397), 1 Candida lusitaniae (AR Bank #398), and 2 Saccharomyces cerevisiae strains (AR Bank #399 and AR Bank #400)) were part of a larger fungal library from the AR Bank maintained by the Centers for Disease Control and Prevention (CDC; Atlanta, GA, USA). Filamentous fungi and yeasts were cultivated at 35° C. in RPMI 1640 medium (with L-glutamine, without sodium bicarbonate, Sigma-Aldrich, St. Louis, MO) buffered to a pH of 7.0 with 0.165 M morpholinepropanesulfonic acid (MOPS) buffer (Sigma-Aldrich). For cytotoxicity assays, HepG2 and the mouse macrophage cell line J774A.1 were obtained from University of Kentucky. The human embryonic kidney cell line, HEK-293, was bought from the ATCC. Mammalian cells were grown in Dulbecco's Modified Eagle's Medium (DMEM) (from VWR) with 10% fetal bovine serum (FBS) (from VWR) and 1% Pen/Strep (from ATCC). Cell lines were cultured at 37° C. with 5% CO2 and passaged by trypsinization with 0.05% trypsin: 0.53 mM EDTA (from Sigma-Aldrich).
The MIC values of compounds 1a-9j against yeast cells (strains A-P and 381-400) were determined in 96-well plates as described in the CLSI documents M27-A3 and M38-A2 with minor modifications.^2 A single colony of freshly prepared yeast cells was used to inoculate 5 mL of yeast extract peptone dextrose (YPD) broth prior to incubation overnight with shaking at 200 rpm at 35° C. From the actively growing yeast culture, 100 µL were then transferred to 900 μL of RPMI 1640 medium and re-adjusted to achieve OD600 of 0.12 (˜1×10^6 CFU/mL). The cell suspension was further diluted to achieve 1:100 in RPMI 1640 medium. 100 μL of cells were added to the wells of a 96-well microtiter plates that contained 100 µL of the compound solution to obtain concentrations of 0.06-31.3 μg/mL of compounds 1a-9j or AmB prior to incubation for 48 h at 35° C. […]

[1] = Candida albicans, ATCC10231, 48 h, read-out: MIC

SMILES	MIC [μg/mL^−1]	MIC [1] [µg/mL]
O=C(NNc1ccc(Cl)cc1)c1ccc(F)cc1F [Compound 1e]	1.95	
O=C(NNc1ccc(Cl)cc1)c1nc(F)ccc1F [Compound 8e]	3.9	
COc1ccc(NNC(=O)c2ccc(Br)cn2)cc1 [Compound 4f]		3.9 (≈ 12.1 µM)
O=C(NNc1ccc(Cl)cc1)c1ccccn1 [Compound 2e]	0.12	
O=C(NNc1cc(Cl)cc(Cl)c1)c1ccc(F)cc1F [Compound 1j]		3.9 (≈ 12.3 µM)
O=C(NNc1cccc(Cl)c1)c1ccccn1 [Compound 2b]	0.12	
COc1cccc(NNC(=O)c2ccc(Br)cn2)c1 [Compound 4c]		0.98 (≈ 3.04 µM)
COc1cccc(NNC(=O)c2ncc(F)cc2F)c1 [Compound 7c]		0.98 (≈ 3.51 µM)
COc1cccc(NNC(=O)c2cnccn2)c1 [Compound 9c]		0.49 (≈ 2.01 µM)
O=C(NNc1cccc(F)c1)c1ccccn1 [Compound 2a]	≤0.06	
COc1ccc(NNC(=O)c2ncc(F)cc2F)cc1 [Compound 7f]		1.95 (≈ 6.98 µM)
C[C@@H]1[C@H](O)[C@@H](C)/C=C/C=C/C=C/C=C/C=C/C=C/C=C/[C@H](O[C@@H]2O[C@H](C)[C@@H](O)[C@H](N)[C@@H]2O)C[C@@H]2O[C@](O)(C[C@@H](O)C[C@@H](O)[C@H](O)CC[C@@H](O)C[C@@H](O)CC(=O)O[C@H]1C)C[C@H](O)[C@H]2C(=O)O [AmB, amphotericin B, reference compound]	1.95	
O=C(NNc1cc(F)cc(F)c1)c1ccc(F)cc1F [Compound 1i]		3.9 (≈ 13.7 µM)
O=C(NNc1ccc(F)cc1)c1ccc(F)cn1 [Compound 3d]	0.49	
COc1ccc(NNC(=O)c2nc(F)ccc2F)cc1 [Compound 8f]		1.95 (≈ 6.98 µM)
O=C(NNc1ccc(F)cc1F)c1cccc(F)n1 [Compound 5g]		0.98 (≈ 3.67 µM)
COc1ccc(NNC(=O)c2ccccn2)cc1 [Compound 2f]		0.12 (≈ 0.493 µM)
O=C(NNc1cccc(F)c1)c1ncc(F)cc1F [Compound 7a]	0.24	
O=C(NNc1cccc(F)c1)c1cccc(Br)n1 [Compound 6a]	0.49	
O=C(NNc1cccc(F)c1)c1ccc(F)cn1 [Compound 3a]	0.49	
COc1ccc(NNC(=O)c2ccc(F)cc2F)cc1 [Compound 1f]		0.98 (≈ 3.52 µM)

SMILES	MIC [μg/mL^−1]	MIC [1] [µg/mL]
COc1cccc(NNC(=O)c2ccc(F)cn2)c1 [Compound 3c]	0.24	
O=C(NNc1cc(F)cc(F)c1)c1ccccn1 [Compound 2i]		≤ 0.06
O=C(NNc1ccc(F)cc1F)c1cnccn1 [Compound 9g]		0.24 (≈ 0.959 µM)
COc1cccc(NNC(=O)c2ccccn2)c1 [Compound 2c]	0.24	
O=C(NNc1cccc(F)c1)c1cccc(F)n1 [Compound 5a]	0.49	
COc1cccc(NNC(=O)c2ccc(F)cc2F)c1 [Compound 1c]		0.98 (≈ 3.52 µM)
O=C(NNc1ccc(F)cc1F)c1ccc(Br)cn1 [Compound 4g]		3.9 (≈ 11.9 µM)
COc1ccc(NNC(=O)c2ccc(F)cn2)cc1 [Compound 3f]	0.24	
O=C(NNc1cc(F)ccc1F)c1ccccn1 [Compound 2h]		0.12 (≈ 0.482 µM)
O=C(NNc1ccc(Cl)cc1)c1ccc(F)cn1 [Compound 3e]	1.95	
O=C(NNc1ccc(F)cc1F)c1ccccn1 [Compound 2g]		0.12 (≈ 0.482 µM)
O=C(NNc1cc(F)ccc1F)c1ccc(F)cc1F [Compound 1h]		3.9 (≈ 13.7 µM)
O=C(NNc1cccc(F)c1)c1ccc(F)cc1F [Compound 1a]	0.24	
O=C(NNc1ccc(Cl)cc1)c1cnccn1 [Compound 9e]	0.98	
O=C(NNc1cccc(F)c1)c1nc(F)ccc1F [Compound 8a]	0.98	
O=C(NNc1ccc(F)cc1)c1cnccn1 [Compound 9d]		0.24 (≈ 1.03 µM)
COc1ccc(NNC(=O)c2cccc(Br)n2)cc1 [Compound 6f]		1.95 (≈ 6.05 µM)
O=C(NNc1ccc(F)cc1F)c1ncc(F)cc1F [Compound 7g]		0.98 (≈ 3.44 µM)
O=C(NNc1ccc(F)cc1)c1cccc(F)n1 [Compound 5d]		0.24 (≈ 0.963 µM)
COc1ccc(NNC(=O)c2cccc(F)n2)cc1 [Compound 5f]		0.24 (≈ 0.919 µM)
O=C(NNc1ccc(F)cc1)c1ccccn1 [Compound 2d]		0.12 (≈ 0.519 µM)

SMILES	MIC [μg/mL^−1]	MIC [1] [µg/mL]
COc1cccc(NNC(=O)c2nc(F)ccc2F)c1 [Compound 8c]		0.98 (≈ 3.51 µM)
O=C(NNc1cccc(Cl)c1)c1ccc(F)cc1F [Compound 1b]		1.95 (≈ 6.9 µM)
O=C(NNc1ccc(F)cc1)c1cccc(Br)n1 [Compound 6d]		0.98 (≈ 3.16 µM)
O=C(NNc1cccc(F)c1)c1cnccn1 [Compound 9a]	0.24	
O=C(NNc1cc(F)cc(F)c1)c1cnccn1 [Compound 9i]		0.24 (≈ 0.959 µM)
O=C(NNc1ccc(F)cc1)c1ncc(F)cc1F [Compound 7d]		0.98 (≈ 3.67 µM)
O=C(NNc1ccc(F)cc1)c1ccc(Br)cn1 [Compound 4d]		1.95 (≈ 6.29 µM)
O=C(NNc1ccc(Cl)cc1)c1cccc(F)n1 [Compound 5e]	1.95	
O=C(NNc1cc(Cl)cc(Cl)c1)c1ccccn1 [Compound 2j]		0.24 (≈ 0.851 µM)
O=C(NNc1ccc(Cl)cc1)c1ncc(F)cc1F [Compound 7e]	3.9	
O=C(NNc1cccc(F)c1)c1ccc(Br)cn1 [Compound 4a]	0.49	
O=C(NNc1ccc(F)cc1F)c1ccc(F)cn1 [Compound 3g]		0.49 (≈ 1.83 µM)
O=C(NNc1cc(Cl)cc(Cl)c1)c1cnccn1 [Compound 9j]		0.49 (≈ 1.73 µM)
O=C(NNc1ccc(F)cc1)c1ccc(F)cc1F [Compound 1d]		0.49 (≈ 1.84 µM)
O=C(NNc1ccc(F)cc1F)c1ccc(F)cc1F [Compound 1g]		1.95 (≈ 6.86 µM)
O=C(NNc1cc(F)ccc1F)c1cnccn1 [Compound 9h]		0.24 (≈ 0.959 µM)
O=C(NNc1ccc(F)cc1)c1nc(F)ccc1F [Compound 8d]		0.24 (≈ 0.898 µM)
COc1ccc(NNC(=O)c2cnccn2)cc1 [Compound 9f]		0.49 (≈ 2.01 µM)
O=C(NNc1cccc(Cl)c1)c1cnccn1 [Compound 9b]		0.24 (≈ 0.965 µM)
O=C(NNc1ccc(F)cc1F)c1nc(F)ccc1F [Compound 8g]		0.98 (≈ 3.44 µM)
